# “And” between values parts separate entries of the source, which are not always exact repeats. Equal entries are not always repeated. Where two headings read alike, the source gives them in different places.
# Test system: DosRST regulon
# Format: cell-based
compound,measurement,setting,value
"C[C@@H]1CC[C@H]2[C@@H](C)C(=O)O[C@@H]3O[C@]4(C)CC[C@@H]1[C@]32OO4 [HC101A, artemisinin, reference compound]",downregulation of tgs1 gene (transcriptional profiling),"CDC1551, 40 μM, 6 days",~100 fold
same,Counts per million (CPM) WT_HC101A,gene MT0055,35.17 CPM and 29.03 CPM
same,log2 Fold change,gene MT0055,−1.288
same,Counts per million (CPM) WT_HC101A,gene MT0062 (Rv0056 rp11),104.6 CPM and 99.67 CPM
same,log2 Fold change,gene MT0062 (Rv0056 rp11),−1.059
same,log2 Fold change,gene MT0086 Rv0079,−1.314
same,Counts per million (CPM) WT_HC101A,gene MT0105 (Rv0096 PPE),8.529 CPM and 7.796 CPM
same,log2 Fold change,gene MT0105 (Rv0096 PPE),−1.583
same,Counts per million (CPM) WT_HC101A,gene MT0106 (Rv0097),24.38 CPM and 21.53 CPM
same,log2 Fold change,gene MT0106 (Rv0097),−1.646
same,Counts per million (CPM) WT_HC101A,gene MT0107 (Rv0098),11.7 CPM and 9.891 CPM
same,log2 Fold change,gene MT0107 (Rv0098),−1.652
same,Counts per million (CPM) WT_HC101A,gene MT0108 (Rv0099 fadD10),39.35 CPM and 32.64 CPM
same,log2 Fold change,gene MT0108 (Rv0099 fadD10),−1.057
same,Counts per million (CPM) WT_HC101A,gene MT0117,157.5 CPM and 202.6 CPM
same,log2 Fold change,gene MT0117,−1.008
same,Counts per million (CPM) WT_HC101A,gene MT0122 (Rv0113 gmhA),36.48 CPM and 25.54 CPM
same,log2 Fold change,gene MT0122 (Rv0113 gmhA),−1.031
same,Counts per million (CPM) WT_HC101A,gene MT0124,5.295 CPM and 3.898 CPM
same,log2 Fold change,gene MT0124,−1.954
same,Counts per million (CPM) WT_HC101A,gene MT0175 (Rv0166 fadD5),67.07 CPM and 45.73 CPM
same,log2 Fold change,gene MT0175 (Rv0166 fadD5),−1.959
same,Counts per million (CPM) WT_HC101A,gene MT0176,118.5 CPM and 96.7 CPM
same,log2 Fold change,gene MT0176,−1.284
same,Counts per million (CPM) WT_HC101A,gene MT0178 (Rv0169 mcel),178.5 CPM and 133.6 CPM
same,log2 Fold change,gene MT0178 (Rv0169 mcel),−1.664
same,log2 Fold change,gene MT0179 (Rv0170),−1.755
same,log2 Fold change,gene MT0180 (Rv0171),−1.645
same,log2 Fold change,gene MT0181 (Rv0172),−1.502
same,log2 Fold change,gene MT0182 (Rv0173 IprK),−1.638
same,log2 Fold change,gene MT0183 (Rv0174),1.264
same,log2 Fold change,gene MT0241 (Rv0231 fadE4),−1.266
same,log2 Fold change,gene MT0244 (Rv0233 nrdB),−1.533
same,log2 Fold change,gene MT0329 (Rv0315),−1.589
same,log2 Fold change,gene MT0417,−1.313
same,log2 Fold change,gene MT0423 (Rv0410c pknG),−1.948
same,log2 Fold change,gene MT0424 (Rv0411c glnH),−1.654
same,log2 Fold change,gene MT0425 (Rv0412c),−1.504
same,log2 Fold change,gene MT0429 (Rv0416),−1.414
same,log2 Fold change,gene MT0434,−1.079
same,log2 Fold change,gene MT0524,−1.085
same,log2 Fold change,gene MT0595 Rv0569,−2.701
same,log2 Fold change,gene MT0596 Rv0570 nrdZ,−4.516
same,log2 Fold change,gene MT0597 Rv0571c,−2.001
same,log2 Fold change,gene MT0599 Rv0572c,−3.648
same,log2 Fold change,gene MT0600,−4.304
same,log2 Fold change,gene MT0601 Rv0573c,−2.988
same,log2 Fold change,gene MT0602 Rv0574c,−3.56
same,log2 Fold change,gene MT0637 (Rv0608),−1.073
same,log2 Fold change,gene MT0735 (Rv0708 rplP),−1.134
same,log2 Fold change,gene MT0736 (Rv0709 rpmC),−1.065
same,log2 Fold change,gene MT0741,−1.181
same,log2 Fold change,gene MT0741.1 (Rv0715 rplX),−1.23
same,log2 Fold change,gene MT0742.1 (Rv0717 rpsN),−1.057
same,log2 Fold change,gene MT0747 (Rv0722 rpmD),−1.393
same,log2 Fold change,gene MT0846 Rv0824c desA1,−1.662
same,log2 Fold change,gene MT0877 (Rv0854),−1.066
same,log2 Fold change,gene MT0898,−3.3
same,log2 Fold change,gene MT0908 (Rv0885),−1.929
same,log2 Fold change,gene MT0909 (Rv0886 fprB),−1.498
same,log2 Fold change,gene MT0911 (Rv0888),−2.361
same,log2 Fold change,gene MT1002 (Rv0974c accD2),−1.787
same,log2 Fold change,gene MT1019 (Rv0990c),−1.168
same,log2 Fold change,gene MT1020,−1.37
same,log2 Fold change,gene MT1056 (Rv1037c),−1.377
same,log2 Fold change,gene MT1095 Rv1065,−1.172
same,Counts per million (CPM) WT_HC101A,gene MT1823 (Rv1773c),189.6 CPM and 111.2 CPM
same,log2 Fold change,gene MT1823 (Rv1773c),−1.79
same,Counts per million (CPM) WT_HC101A,gene MT1840 (Rv1791 PE),169.4 CPM and 147.4 CPM
same,log2 Fold change,gene MT1840 (Rv1791 PE),−1.118
same,Counts per million (CPM) WT_HC101A,gene MT1850 (Rv1812c),69.36 CPM and 114.1 CPM
same,log2 Fold change,gene MT1850 (Rv1812c),−1.173
same,log2 Fold change,gene MT1851 Rv1813c,−4.29
same,Counts per million (CPM) WT_HC101A,gene MT1882 (Rv1834),28.5 CPM and 25.48 CPM
same,log2 Fold change,gene MT1882 (Rv1834),−1.56
same,Counts per million (CPM) WT_HC101A,gene MT1932,219.8 CPM and 285.7 CPM
same,log2 Fold change,gene MT1932,−1.182
same,Counts per million (CPM) WT_HC101A,gene MT1942,74.52 CPM and 69.7 CPM
same,log2 Fold change,gene MT1942,−1.048
same,Counts per million (CPM) WT_HC101A,gene MT1943,65.44 CPM and 61.15 CPM
same,log2 Fold change,gene MT1943,−1.048
same,Counts per million (CPM) WT_HC101A,gene MT1955 (Rv1904),88.58 CPM and 104.4 CPM
same,log2 Fold change,gene MT1955 (Rv1904),−1.006
same,Counts per million (CPM) WT_HC101A,gene MT1959 (Rv1918c PPE),62.82 CPM and 65.51 CPM
same,log2 Fold change,gene MT1959 (Rv1918c PPE),−1.121
same,Counts per million (CPM) WT_HC101A,gene MT1986 (Rv1936),47.53 CPM and 27.87 CPM
same,log2 Fold change,gene MT1986 (Rv1936),−2.373
same,Counts per million (CPM) WT_HC101A,gene MT1987 (Rv1937),66.35 CPM and 34.04 CPM
same,log2 Fold change,gene MT1987 (Rv1937),−2.295
same,Counts per million (CPM) WT_HC101A,gene MT1988 (Rv1938 cphB),24.12 CPM and 13.5 CPM
same,log2 Fold change,gene MT1988 (Rv1938 cphB),−2.344
same,Counts per million (CPM) WT_HC101A,gene MT1989 (Rv1939),13.56 CPM and 7.389 CPM
same,log2 Fold change,gene MT1989 (Rv1939),−2.045
same,Counts per million (CPM) WT_HC101A,gene MT2007,22.23 CPM and 14.6 CPM
same,log2 Fold change,gene MT2007,−1.243
same,Counts per million (CPM) WT_HC101A,gene MT2016 (Rv1964),104.5 CPM and 57.78 CPM
same,log2 Fold change,gene MT2016 (Rv1964),−1.754
same,Counts per million (CPM) WT_HC101A,gene MT2017,43.41 CPM and 25.54 CPM
same,log2 Fold change,gene MT2017,−2.544
same,Counts per million (CPM) WT_HC101A,gene MT2018 (Rv1966 mce3),50.34 CPM and 26.88 CPM
same,log2 Fold change,gene MT2018 (Rv1966 mce3),−2.558
same,Counts per million (CPM) WT_HC101A,gene MT2019 (Rv1967),52.89 CPM and 27.87 CPM
same,log2 Fold change,gene MT2019 (Rv1967),−2.496
same,log2 Fold change,gene MT2020 Rv1968,−2.621
same,Counts per million (CPM) WT_HC101A,gene MT2021 (Rv1969),23.73 CPM and 17.45 CPM
same,log2 Fold change,gene MT2021 (Rv1969),−1.799
same,Counts per million (CPM) WT_HC101A,gene MT2022 (Rv1970 lprM),37.39 CPM and 24.44 CPM
same,log2 Fold change,gene MT2022 (Rv1970 lprM),−2.347
same,Counts per million (CPM) WT_HC101A,gene MT2023 (Rv1971),53.54 CPM and 31.19 CPM
same,log2 Fold change,gene MT2023 (Rv1971),−2.293
same,Counts per million (CPM) WT_HC101A,gene MT2024 (Rv1972),16.15 CPM and 10.41 CPM
same,log2 Fold change,gene MT2024 (Rv1972),−1.124
same,Counts per million (CPM) WT_HC101A,gene MT2042.1,19.87 CPM and 29.96 CPM
same,log2 Fold change,gene MT2042.1,−1.522
same,Counts per million (CPM) WT_HC101A,gene MT2050 (Rv2004c),234 CPM and 227.9 CPM
same,log2 Fold change,gene MT2050 (Rv2004c),−3.602
same,Counts per million (CPM) WT_HC101A,gene MT2051 (Rv2005c),149.3 CPM and 179.3 CPM
same,log2 Fold change,gene MT2051 (Rv2005c),−3.859
same,Counts per million (CPM) WT_HC101A,gene MT2052 (Rv1996),177.9 CPM and 195.4 CPM
same,log2 Fold change,gene MT2052 (Rv1996),−7.087
same,Counts per million (CPM) WT_HC101A,gene MT2052 (Rv2006 otsB),122.8 CPM and 137.5 CPM
same,log2 Fold change,gene MT2052 (Rv2006 otsB),−2.478
same,Counts per million (CPM) WT_HC101A,gene MT2053 (Rv1997 ctpF),70.21 CPM and 92.04 CPM
same,log2 Fold change,gene MT2053 (Rv1997 ctpF),4.931
same,log2 Fold change,gene MT2053 (Rv2007c fdxA),−3.149
same,Counts per million (CPM) WT_HC101A,gene MT2059 (Rv2003c),101.8 CPM and 119.9 CPM
same,log2 Fold change,gene MT2059 (Rv2003c),−2.726
same,Counts per million (CPM) WT_HC101A,gene MT2079 (Rv2023c),11.24 CPM and 12.86 CPM
same,log2 Fold change,gene MT2079 (Rv2023c),−1.5
same,Counts per million (CPM) WT_HC101A,gene MT2080,28.31 CPM and 33.92 CPM
same,log2 Fold change,gene MT2080,−1.521
same,Counts per million (CPM) WT_HC101A,gene MT2086 (Rv2027c),56.35 CPM and 58.94 CPM
same,log2 Fold change,gene MT2086 (Rv2027c),−2.22
same,log2 Fold change,gene MT2087 Rv2028c,−3.553
same,Counts per million (CPM) WT_HC101A,gene MT2088,91.91 CPM and 170.4 CPM
same,log2 Fold change,gene MT2088,−4.873
same,log2 Fold change,gene MT2089 Rv2030c,−4.16
same,log2 Fold change,gene MT2090,−5.249
same,log2 Fold change,gene MT2091 Rv2032,−4.893
same,Counts per million (CPM) WT_HC101A,gene MT2156 (Rv2107 PE),20.07 CPM and 13.38 CPM
same,log2 Fold change,gene MT2156 (Rv2107 PE),−1.59
same,Counts per million (CPM) WT_HC101A,gene MT2278 (Rv2220 glnAl),436.2 CPM and 385.9 CPM
same,log2 Fold change,gene MT2278 (Rv2220 glnAl),−1.475
same,Counts per million (CPM) WT_HC101A,gene MT2304 (Rv2244 acpM),626.7 CPM and 987.4 CPM
same,log2 Fold change,gene MT2304 (Rv2244 acpM),−2.163
same,log2 Fold change,gene MT2305 (Rv2245 kasA),−1.728
same,Counts per million (CPM) WT_HC101A,gene MT2306,581.8 CPM and 834.9 CPM
same,log2 Fold change,gene MT2306,−1.559
same,log2 Fold change,gene MT2307 (Rv2247 accD6),−1.121
same,Counts per million (CPM) WT_HC101A,gene MT2329 (Rv2267c),24.25 CPM and 27 CPM
same,log2 Fold change,gene MT2329 (Rv2267c),−1.234
